Reference: patent publication US6455507B1, “Benzimidazole derivatives” (SmithKline Beecham Corporation, priority 1997, dated 2002)

Experiments:
HCMV strain AD169 = test: Human Cytomegalovirus Assay (HCMV DNA hybridization); assay type: cell-based; conditions: HCMV strain AD169 on MRC5 cell monolayers, 5 days incubation, antiviral effect from HCMV DNA by quantitative hybridization
Experimental: HCMV strain AD169 was grown on monolayers of human embryonic lung cells (MRC5 cells) in 96 well plates. After infection of the cells at a ratio of approximately 0.01 infectious virus particles per cell, the compounds to be tested were added to selected wells at six different concentrations, each in triplicate. The same concentrations of compound were also applied to wells containing monolayers of uninfected cells in order to assess compound cytotoxicity. The plates were incubated for 5 days, and the minimum cytotoxic dose was estimated from microscopic examination. The IC50 for antiviral effect was estimated from measurements of HCMV DNA in each well by blotting and quantitative specific DNA hybridization, similar to the method of Gadler (Antimicrob. Agents Chemother. 1983, 24, 370-374).

Molecule | IC50 (HCMV strain AD169) [nM] | melting point | IC50 (HCMV strain AD169; Human betaherpesvirus 5, 120 h) [nM]
2-Bromo-5,6-dichloro/4-fluoro-1-beta-D-ribopyranosyl-1H-benzimidazole [Example 24] | 900 | – | –
O[C@@H]1CCCC[C@H]1n1c(Br)nc2cc(Cl)c(Cl)cc21 (racemic) [Example 45, (±)-trans-2-(2-Bromo-5,6-dichloro-1H-benzimidazol-1-yl)cyclohexanol] | – | 201 to 202 °C | –
O[C@@H]1CCCC[C@H]1n1c(NC2CC2)nc2cc(Cl)c(Cl)cc21 (racemic) [Example 46, (±)-trans-2-[5,6-Dichloro-2-(cyclopropylamino)-1H-benzimidazol-1-yl]cyclohexanol] | – | 149 to 151 °C | –
CC(=O)O[C@@H]1[C@H](OC(C)=O)[C@H](OC(C)=O)CO[C@H]1n1c(Br)nc2cc(Cl)c(Cl)cc21 [Example 1, 2-Bromo-5,6-dichloro-1-(2,3,4-tri-O-acetyl-beta-D-ribopyranosyl)-1H-benzimidazole] | – | 100 to 110 °C | 1000
O[C@@H]1[C@H](O)[C@H](O)CO[C@H]1n1c(Br)nc2cc(Cl)c(Cl)cc21 [Example 2, 2-Bromo-5,6-dichloro-1-beta-D-ribopyranosyl-1H-benzimidazole] | – | 175 °C (dec.) | 700
CC(C)Nc1nc2cc(Cl)c(Cl)cc2n1[C@@H]1OC[C@@H](O)[C@@H](O)[C@H]1O [Example 3, 5,6-Dichloro-N-1(1-methylethyl)-1-beta-D-ribopyranosyl-1H-benzimidazole-2-amine] | 22000 | – | –
CC(=O)O[C@@H]1[C@H](OC(C)=O)[C@@H](n2c(Br)nc3cc(Cl)c(Cl)cc32)OC[C@@H]1OC(C)=O [Example 4, 2-Bromo-5,6-dichloro-1-(2,3,4-tri-O-acetyl-beta-L-ribopyranosyl)-1H-benzimidazole] | – | 110 °C | –
Cc1cc2nc(Br)n([C@@H]3OC[C@@H](O)[C@@H](O)[C@H]3O)c2cc1Cl [Example 13, 2-Bromo-6-chloro-5-methyl-1-beta-D-ribopyranosyl-1H-benzimidazole] | – | 170 to 175 °C (dec.) | 6000
OC[C@@H]1OC[C@H](n2c(NC3CC3)nc3cc(Cl)c(Cl)cc32)C[C@H]1O [Example 39, (3R,5R,6S)-5,6-Dichloro-2-(cyclopropylamino)-1-(tetrahydro-5-hydroxy-6-(hydroxymethyl)2H-pyran-3-yl)-1H-benzimidazole] | – | 98 to 99 °C | –
OC[C@H]1OC[C@@H](n2c(Br)nc3cc(Cl)c(Cl)cc32)[C@H](O)[C@@H]1O [Example 40, (3R,4S,5S,6R)-2-Bromo-5,6-dichloro-1-(tetrahydro-4,5-dihydroxy-6-(Hydroxymethyl)-2H-pyran-3-yl)-1H-benzimidazole] | – | 207 to 209 °C | –
OC[C@H]1OC[C@@H](n2c(NC3CC3)nc3cc(Cl)c(Cl)cc32)[C@H](O)[C@@H]1O [Example 41, (3R,4S ,5S ,6R)-5,6-Dichloro-2-(cyclopropylamino)-1-(tetrahydro-4,5-dihydroxy-6-(hydroxymethyl)-2H-pyran-3-yl)-1H-benzimidazole] | – | 244 °C (dec.) | –
OC[C@@H]1OC[C@H](n2c(Br)nc3cc(Cl)c(Cl)cc32)[C@@H](O)[C@H]1O [Example 42, (3S,4R,5R,6S)-2-Bromo-5,6-dichloro-1-(tetrahydro-4,5-dihydroxy-6-(hydroxymethyl)-2H-pyran-3-yl)-1H-benzimidazole] | – | 207 to 208 °C | –
OC[C@@H]1OC[C@H](n2c(NC3CC3)nc3cc(Cl)c(Cl)cc32)[C@@H](O)[C@H]1O [Example 43, (3S,4R,5R,6S)-5,6-Dichloro-2-(cyclopropylamino)-1-(tetrahydro-4,5-dihydroxy-6-(hydroxymethyl)-2H-pyran-3-yl)-1H-benzimidazole] | – | 164 °C | –
O[C@H]1[C@H](O)[C@@H](n2c(Br)nc3cc(Cl)c(Cl)cc32)OC[C@@H]1O [Example 57, 2-Bromo-5,6-dichloro-1-beta-L-xylopyranosyl-1H-benzimidazole] | – | 164 to 165 °C | –
